Experimental data reported in patent US10543185B2, “Method for treating idiopathic pulmonary fibrosis” (The University of Chicago, priority 2015, dated 2020).
“Also recorded” adds a separate entry of the source.

Legend:
[1] = test system: patients with idiopathic pulmonary fibrosis (IPF); experiment: PANTHER-IPF clinical trial cohort: secondary genotype-stratified survival analysis, NAC or PAN versus placebo; type: in vivo, human; details: for Composite Endpoint, %: 10% FVC decline, hospitalization or transplantation; for Treatment-Specific Composite Endpoint Risk, HR / Multivariable Cox interaction model coefficient, therapy term / Multivariable Cox interaction model coefficient, SNP*therapy interaction term: adjusted for age, gender; for Treatment-Specific Composite Endpoint Risk, HR: FVC (% predicted) and DLCO (% predicted); for Multivariable Cox interaction model coefficient, therapy term / Multivariable Cox interaction model coefficient, SNP*therapy interaction term: composite endpoint-free survival, FVC and DLCO; for Progression-Free Survival HR (95% CI) / Hospitalization-Free Survival HR (95% CI): NAC vs placebo
From the text: Single nucleotide polymorphisms (SNPs) within TOLLIP and MUC5B are associated with idiopathic pulmonary fibrosis (IPF) susceptibility and survival. Both genes play critical roles in lung host defense, a process that can be influenced by oxidative stress and modulated by N-acetylcysteine (NAC). Applicants set out to determine whether SNPs within TOLLIP and MUC5B modify the efficacy of NAC therapy in patients with IPF. To achieve this, secondary analysis was completed of the PANTHER-IPF clinical trial (n=154) and an independent replication cohort (n=405) composed of patients from the INSPIRE clinical trial and University of Chicago. SNPs within TOLLIP (rs5743890/rs5743894/rs5743854/rs3750920) and MUC5B ([…]) were genotyped. Multivariable Cox regression with interaction analysis was performed followed by genotype-stratified models for significant interaction SNPs to determine genotype-specific survival associated with NAC therapy. A composite endpoint of death, FVC decline, hospitalization or transplantation was used.
The PANTHER cohort consists of individuals enrolled in the IPFnet randomized clinical trial comparing three treatments: prednisone/azathioprine/N-acetylcysteine (PAN) combination therapy, N-acetylcysteine (NAC) monotherapy and placebo. […] Enrollment resumed for the NAC and placebo arms from January to July 2012, with study completion in 2013. Clinical and genetic data for patients providing informed consent to genetic testing were used to conduct the analysis. Patients were followed for up to 72 weeks after randomization.
(§1) To minimize the effects of population stratification, only participants that self-declared a non-Hispanic white ethnicity were included in the analysis. Demographic and clinical information extracted from the datasets included age, gender, race/ethnicity, treatment arm, pulmonary function testing (PFT) including forced vital capacity (FVC) and diffusion capacity for carbon monoxide (DLCO) and outcomes, including death, >10% decline in FVC, hospitalization and lung transplantation.
The primary analysis tested whether statistical interaction was present between SNPs of interest and NAC therapy with regard to composite endpoint-free survival, defined as time from trial enrollment to death, ≥10% FVC decline, hospitalization or transplantation. Interaction was formally tested with a multivariable Cox regression model that included the following variables: SNP genotype, NAC therapy, and a SNP*NAC interaction term, age, gender, FVC (% predicted) and DLCO (% predicted). Statistical interaction was considered present when the Wald z-statistic for SNP*NAC interaction term corresponded to a p-value <0.01, which adjusts for multiple testing by Bonferroni correction. Interaction detected by this method was then further explored by constructing genotype-stratified multivariable Cox models to determine genotype-specific endpoint risk associated with NAC therapy. Based on SNP distributions, an additive allelic model was assumed for rs3750920 (TOLLIP) and a dominant model for rs5743890 (TOLLIP), rs5743894 (TOLLIP), rs5743854 (TOLLIP) and rs35705950 (MUC5B). Each model was checked to ensure that the proportional hazards assumption was met.
Of the 341 patients enrolled in the PANTHER trial, 315 self-reported a non-Hispanic white ethnicity (FIG. 2). Of those 315 individuals, 154 consented to genetic testing and were included in the primary analysis. Among genotyped patients, fifty-four patients received placebo therapy and […] patients received NAC therapy. Baseline demographic and clinical characteristics between non-Hispanic white genotyped (n=154) and non-genotyped (n=161) patients stratified by treatment group are shown in Table 1. […]

[2] = test system: patients with idiopathic pulmonary fibrosis (IPF); experiment: Independent replication cohort (INSPIRE trial and University of Chicago): NAC versus no NAC therapy, genotype-stratified; type: in vivo, human; details: for Replication cohort multivariate Cox interaction model coefficient, NAC Therapy term: FVC, DLCO, prednisone use, azathioprine use and study cohort; for Replication cohort multivariate Cox interaction model coefficient, SNP*NAC interaction term: adjusted as in the Table 9 footnote; for Genotype-stratified Composite Endpoint Risk Associated with NAC Therapy, HR: vs no NAC therapy
From the text: The INSPIRE cohort consists of individuals enrolled in the industry-sponsored randomized clinical trial comparing interferon gamma-1b to placebo. […] Clinical and genetic data for patients providing informed consent to genetic testing were used to conduct the analysis. Patients were followed for up to 170 weeks after randomization.
The University of Chicago (UChicago) cohort consists of individuals followed in the UChicago ILD clinic from 2007-2013 who provided informed consent to undergo DNA testing. Patients were followed from time of initial evaluation until death, lung transplantation, loss-to-follow up or time of censoring (Sep. 9, 2013). Vital status was determined using telephone interviews with family members and the social security death index. Patients participating in PANTHER and INSPIRE were removed from the UC cohort.
as §1
Hospitalization data were not available for patients in the replication cohort so composite endpoint-free survival was defined as time from trial enrollment (INSPIRE) or blood draw (UChicago) to death, ≥10% FVC decline or transplantation in those not receiving NAC therapy and time from NAC initiation to death, >10% FVC decline or transplantation in those receiving NAC therapy. Because follow-up time was longer for the UChicago compared to INSPIRE cohort, UChicago cohort survival time was censored at 170 weeks to allow for merging of the datasets. All statistical analysis was conducted using Stata (StataCorp. 2011. Release 12. College Station, Tex.).
Based on the findings above, interaction modeling was performed in an independent cohort between NAC therapy and rs3750920 (TOLLIP), rs5743894 (TOLLIP) and rs35705950 (MUC5B). Of the 771 non-Hispanic white individuals enrolled in the INSPIRE trial, DNA was available for 314. In the UChicago cohort, of 151 non-Hispanic white individuals with sequencing data, 91 had longitudinal PFT data and were included in the analysis. A summary of baseline demographic and clinical characteristics, along with genotype counts for the INSPIRE, UChicago and combined cohorts are shown in Table 8.

[3] = test system: patients with idiopathic pulmonary fibrosis (IPF); details: previous reports (Martinez et al., N Engl J Med. 2014); cited from earlier work
[4] = test system: patients with idiopathic pulmonary fibrosis (IPF); details: trial stopped early; cited from earlier work
[5] = PANTHER genotyped patients, NAC arm (n = 60)
[6] = PANTHER non-genotyped patients, NAC arm (n = 61)
[7] = INSPIRE cohort, NAC recipients (n = 29)
[8] = UChicago cohort, NAC recipients (n = 18)
[9] = combined replication cohort, NAC recipients (n = 47)

CC(=O)N[C@@H](CS)C(=O)O [NAC, (2R)-2-acetamido-3-sulfanylpropanoic acid]
Death, % [1, 5]: (1.7) % | FVC Decline ≥10%, % [1, 5]: (18.3) % | Hospitalization, % [1, 5]: (13.3) % | Transplant, % [1, 5]: (5) % | Composite Endpoint, % ([1]; PANTHER genotyped patients, NAC arm (n = 60), death): (31.7) % | Death, % [1, 6]: (4.9) % | FVC Decline ≥10%, % [1, 6]: (27.9) % | Hospitalization, % [1, 6]: (14.8) % | Transplant, % [1, 6]: (1.6) % | Composite Endpoint, % ([1]; PANTHER non-genotyped patients, NAC arm (n = 61), death): (42.6) % | Treatment-Specific Composite Endpoint Risk, HR ([1]; genotyped PANTHER patients): 0.92 | Multivariable Cox interaction model coefficient, therapy term ([1]; model with rs3750920 (TOLLIP)): 1.34 | Multivariable Cox interaction model coefficient, therapy term ([1]; model with rs5743890 (TOLLIP)): 0.17 | Multivariable Cox interaction model coefficient, therapy term ([1]; model with rs5743894 (TOLLIP)): 0.45 | Multivariable Cox interaction model coefficient, therapy term ([1]; model with rs35705950 (MUC5B)): 0.91 | Treatment-Specific Composite Endpoint Risk, HR ([1]; non-genotyped PANTHER patients): 1.31 | Progression-Free Survival HR (95% CI) ([1]; rs3750920 (TOLLIP) CC genotype, death, 10% FVC decline or transplant): 1.27 (0.21-7.55) | Hospitalization-Free Survival HR (95% CI) ([1]; rs3750920 (TOLLIP) CC genotype, death, hospitalization or transplant): 3.74 (0.35-39.80) | Hospitalization-Free Survival HR (95% CI) ([1]; rs3750920 (TOLLIP) CT genotype): 0.45 (0.10-2.15) | Progression-Free Survival HR (95% CI) ([1]; rs3750920 (TOLLIP) CT genotype): 0.63 (0.17-2.30) | Progression-Free Survival HR (95% CI) ([1]; rs3750920 (TOLLIP) TT genotype): 0.09 (0.01-0.76) | Multivariable Cox interaction model coefficient, SNP*therapy interaction term ([1]; rs3750920 (TOLLIP) interaction): −1.47 | Multivariable Cox interaction model coefficient, SNP*therapy interaction term ([1]; rs5743890 (TOLLIP) interaction): −1.17 | Hospitalization-Free Survival HR (95% CI) ([1]; rs5743894 (TOLLIP) AA genotype): 1.43 (0.44-4.70) | Progression-Free Survival HR (95% CI) ([1]; rs5743894 (TOLLIP) AA genotype): 1.68 (0.58-4.90) | Hospitalization-Free Survival HR (95% CI) ([1]; rs5743894 (TOLLIP) AG/GG genotype): 0.21 (0.02-1.99) | Multivariable Cox interaction model coefficient, SNP*therapy interaction term ([1]; rs5743894 (TOLLIP) interaction): −1.42 | Hospitalization-Free Survival HR (95% CI) ([1]; rs35705950 (MUC5B) GG genotype): 1.25 (0.15-10.30) | Progression-Free Survival HR (95% CI) ([1]; rs35705950 (MUC5B) GG genotype): 3.72 (0.69-20.16) | Hospitalization-Free Survival HR (95% CI) ([1]; rs35705950 (MUC5B) GG/TT genotype as printed in Table 7 (text: GT or TT)): 0.49 (0.15-1.58) | Multivariable Cox interaction model coefficient, SNP*therapy interaction term ([1]; rs35705950 (MUC5B) interaction): −1.40 | Composite Endpoint, % [2, 7]: (48.3) % | Death, % [2, 7]: (20.7) % | FVC Decline ≥10%, % [2, 7]: (44.8) % | Transplant, % [2, 7]: (6.9) % | Composite Endpoint, % [2, 8]: (72.2) % | Death, % [2, 8]: (72.2) % | FVC Decline ≥10%, % [2, 8]: (22.2) % | Transplant, % [2, 8]: (0) % | Composite Endpoint, % [2, 9]: (57.5) % | FVC Decline ≥10%, % [2, 9]: (36.2) % | Transplant, % [2, 9]: (4.3) % | Replication cohort multivariate Cox interaction model coefficient, NAC Therapy term ([2]; model with rs3750920 (TOLLIP), adjusted for age, gender): 1.37 | Replication cohort multivariate Cox interaction model coefficient, SNP*NAC interaction term ([2]; model with rs5743894 (TOLLIP), term printed as rs3750920*NAC interaction): −0.40 | Replication cohort multivariate Cox interaction model coefficient, NAC Therapy term ([2]; model with rs5743894 (TOLLIP), adjusted for age, gender): 0.54 | Replication cohort multivariate Cox interaction model coefficient, NAC Therapy term ([2]; model with rs35705950 (MUC5B), adjusted for age, gender): 1.24 | Unadjusted Kaplan-Meier survival among NAC recipients, rs3750920 TT genotype versus CC or CT genotype ([2]; replication cohort, FIG. 3, p=0.03): significantly better overall survival | Genotype-stratified Composite Endpoint Risk Associated with NAC Therapy, HR ([2]; replication cohort, rs3750920 (TOLLIP) CC, adjusted for age, gender, FVC and DLCO): 3.51 | Genotype-stratified Composite Endpoint Risk Associated with NAC Therapy, HR ([2]; replication cohort, rs3750920 (TOLLIP) CT): 2.27 | Genotype-stratified Composite Endpoint Risk Associated with NAC Therapy, HR ([2]; replication cohort, rs3750920 (TOLLIP) TT): 0.23 | Genotype-stratified Composite Endpoint Risk Associated with NAC Therapy, HR ([2]; replication cohort, rs35705950 (MUC5B) GG): 3.15 | Genotype-stratified Composite Endpoint Risk Associated with NAC Therapy, HR ([2]; replication cohort, rs35705950 (MUC5B) GT/TT): 0.94 | Replication cohort multivariate Cox interaction model coefficient, SNP*NAC interaction term ([2]; rs3750920 (TOLLIP) interaction): −0.86 | Replication cohort multivariate Cox interaction model coefficient, SNP*NAC interaction term ([2]; rs35705950 (MUC5B) interaction): −1.30 | Benefit of therapy in patients with IPF, unselected by genotype [3]: no benefit; also recorded: did not provide benefit; also recorded: ineffective

B1: interferon gamma-1b: study drug of the INSPIRE randomized clinical trial, compared to placebo (protein, UniProt P01579 24-161, looked up)
Interferon gamma: QDPYVKEAENLKKYFNAGHSDVADNGTLFLGILKNWKEESDRKIMQSQIVSFYFKLFKNFKDDQSIQKSVETIKEDMNVKFFNSNKKKRDDFEKLTNYSVTDLNVQRKAIHELIQVMAELSPAAKTGKRKRSQMLFRG
modifications: interferon gamma-1b
notes: study drug of the INSPIRE randomized clinical trial, compared to placebo
Benefit compared to placebo at interim analysis [4]: no benefit
